Like-named read-outs stand apart in the source and are kept apart here.
Assays:
[1] = tested on: Herpes B; settings: cited from earlier work
[2] = sheep; cited from earlier work
[3] = in vivo; cited from earlier work
[4] = tested on: hepatitis C, genotype 4; experiment: Open label clinical trial of oral methylene blue, reduction in hepatitis C viral load measured by PCR
[5] = cited from earlier work
[6] = in vivo; cited from earlier work; remark: listed apart in the source
[7] = sheep; doses as high as 50 mg/kg; cited from earlier work
[8] = in vivo; cited from earlier work; remark: listed apart in the source
[9] = in vivo; cited from earlier work; remark: listed apart in the source
[10] = tested on: chronic hepatitis B or C; settings: patients with chronic hepatitis B or C; cited from earlier work
[11] = at 50 days, of the 23 responders

## Nc1nc2c(ncn2COCCO)c(=O)[nH]1 [Acyclovir]
[1]
  sensitivity of the virus in vitro: sensitive

## CN(C)c1ccc2nc3ccc(N(C)C)cc3[s+]c2c1 [methylene blue, 3,7-Bis(dimethylamino)-phenothiazin-5-ium chloride]
[2]
  overall elimination rate constant: 0.0076 ± 0.0016 min⁻¹
[3]
  oral absorption (range): 55% to 97
[4]; 23 patients (of 25, genotype 4), at 50 days
  decrease in viral count: 70-100%
[4]; at 50 days, 25 patients, genotype 4
  non-responders: Two
[4]; [11]
  responders with between 0.7-1 log reduction in viral load: 12 (52%) patients (%)
  responders with between 1-2 log reduction in viral load: 6 (26%) patients (%)
  responders with viral clearance: 5 (22%) patients (%)
[4]; interim results, 8 of 9 patients, within the first 50 days
  drop in viral load: 62%-100
[4]; interim results, first 9 patients, 50 days of treatment
  patients with between greater than or equal to 0.6 log to less than or equal to 1 log reduction in viral load: 89%
[4]; interim results, first 9 patients, 50 days of treatment, 65 mg twice daily oral
  patients with a greater than or equal to two log reduction in viral load: 33%
[4]; overall conclusion of the trial results
  efficacy in treating hepatitis C (conclusion): highly efficacious
[5]; adult humans, one week to 19 months, 100 mg b.i.d. or t.i.d. orally or 100 mg intravenously
  side effects: minimal side effects
[5]; recommended dose 50 to 300 mg by mouth, 1 to 4 mg/kg intravenously
  side effects: blue urine, occasional nausea, anemia and fever
[6]
  crossing of the blood-milk barrier: crosses the blood-milk barrier easily
[7]
  methemoglobin production: minimal methemoglobin production
[8]
  absorption from the GI tract: absorbed well

## CC(=O)OCC(CCn1cnc2cnc(N)nc21)COC(C)=O [famciclovir]
[9]
  oral bioavailability superior to that of oral acyclovir: 3-5 times

## CC(C)[C@H](N)C(=O)OCCOCn1cnc2c(=O)[nH]c(N)nc21 [Valaciclovir]
[9]
  oral bioavailability superior to that of oral acyclovir: 3-5 times

## Nc1nc(O)c2ncn(COC(CO)CO)c2n1 [Ganciclovir]
[1]
  sensitivity of the virus in vitro: sensitive

## Interferon alpha
[10]
  patients in whom treatment is effective: 25-30%

— patent US20060264423A1 (BIOENVISION, INC., priority 2005, published 2006)
